According to patent US10912815B2, “Inhibitors of mitochondrial fission and methods of use thereof” (The Board of Trustees of the Leland Stanford Junior …, priority 2011, dated 2021):
No end group written: not given here.

Columns and labels:
SH-SY5Y cells [1] = test: Total ROS production in SH-SY5Y cells (CM-H2DCFDA); format: cell-based, human; conditions: MPP+ and CCCP 24 hrs, FIG. 6E
Procedure: (§1) The effects of MPP+ or CCCP on translocation of Drp1 in the absence and presence of P110 was measured using confocal microscopy. Cultured SH-SY5Y cells in black 96-well plate were treated with Drp1 peptide inhibitor P110 (1 μM) 30 min prior to treatment of MPP+ (2 mM) or CCCP (5 uM). After 2 hrs of treatment, cells were stained with MITOSOX™ (red mitochondrial superoxide indicator) (5 uM, for 10 min, mitochondrial ROS) or TMRM (0.5 uM, for 20 min, MMP) at 37° C. For total ROS detection, cells were treated with MPP+ or CCCP for 24 hrs. ROS level was measured by CM-H2DCFDA (1 μM for 30 min, Invitrogen). Cells were washed with PBS for three times. The detection was performed in a fluorescence microplate reader (Tecan, Infinite M1000) according to manufacturer's instructions. Measurements were normalized to the cell number counted using Hoechst staining.
(§2) Mitochondrial membrane potential was also determined using TMRM (tetramethylrhodamine methylester). […] Fluoresence detection was performed using black 96-well plates in a fluorescence microplate reader at 560 nm excitation and 690 nm emission and potential was assessed by quenching of the fluorescent signal. […] A kinetic change of mitochondrial superoxide production was determined by using MITOSOX™ (red mitochondrial superoxide indicator). […]

SH-SY5Y cells [2] = test: Apoptosis of SH-SY5Y cells by annexin V staining; format: cell-based, human; conditions: 8 hours after MPP+ exposure, FIG. 9B
Procedure: Apoptosis was determined by annexin V staining 8 hours after MPP+ exposure. The number of apoptotic cells was expressed as mean±S.E. of percentage relative to total number of cells.

SH-SY5Y cells [3] = test: Mitochondrial membrane potential in SH-SY5Y cells (TMRM); format: cell-based, human; conditions: SH-SY5Y in the presence of MPP+ or CCCP, FIG. 6B
Procedure: as §1, §2

OPA1 = molecular target: T1, OPA1 (Homo sapiens, UniProt O60313); test: In vitro GTPase assay, recombinant OPA1; format: biochemical; conditions: recombinant OPA1 25 ng, FIG. 2B
T1 sequence (O60313 88-960): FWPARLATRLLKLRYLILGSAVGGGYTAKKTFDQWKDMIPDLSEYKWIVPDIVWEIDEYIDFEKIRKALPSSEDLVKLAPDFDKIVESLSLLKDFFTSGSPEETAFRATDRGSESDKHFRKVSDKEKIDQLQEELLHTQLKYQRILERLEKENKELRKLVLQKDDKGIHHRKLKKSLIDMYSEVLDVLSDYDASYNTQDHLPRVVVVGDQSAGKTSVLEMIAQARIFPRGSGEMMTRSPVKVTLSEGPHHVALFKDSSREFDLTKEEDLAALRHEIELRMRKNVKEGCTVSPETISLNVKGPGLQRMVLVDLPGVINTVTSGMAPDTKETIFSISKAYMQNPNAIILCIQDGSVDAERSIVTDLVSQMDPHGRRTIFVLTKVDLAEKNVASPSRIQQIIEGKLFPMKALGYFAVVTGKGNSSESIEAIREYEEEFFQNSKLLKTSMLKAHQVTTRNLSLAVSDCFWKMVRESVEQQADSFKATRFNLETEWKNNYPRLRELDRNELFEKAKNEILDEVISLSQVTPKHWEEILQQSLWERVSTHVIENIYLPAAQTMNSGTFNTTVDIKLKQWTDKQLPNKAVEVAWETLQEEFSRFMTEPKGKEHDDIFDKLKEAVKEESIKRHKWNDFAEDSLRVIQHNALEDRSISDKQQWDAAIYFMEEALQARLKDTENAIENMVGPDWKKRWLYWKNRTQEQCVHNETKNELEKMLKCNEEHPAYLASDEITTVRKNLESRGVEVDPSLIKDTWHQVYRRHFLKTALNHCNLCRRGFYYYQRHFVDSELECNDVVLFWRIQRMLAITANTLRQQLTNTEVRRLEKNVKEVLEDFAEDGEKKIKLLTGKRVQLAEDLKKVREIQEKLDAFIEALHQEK
Procedure: First, mitochondrial fission inhibitor constructs were tested to determine what, if any, effects each peptide had on enzyme (GTPase) activity. Recombinant protein Drp1, Mfn1, OPA1 or dynamin-1 (25 ng) was incubated with the indicated modulator peptides for 30 min. GTPase activity was assayed in vitro using a GTPase assay kit (Innova Biosciences, Littleton, USA, or Novus Biologicals, Littleton, Colo.) according to manufacturer's instructions.

[4] = test system: Primary rat dopaminergic neurons; test: Neurite loss of primary dopaminergic neurons exposed to MPP+ (TH staining); format: cell-based; conditions: P110 1 μM, MPP+ 1 μM, FIG. 10C
Procedure: Primary rat dopaminergic neurons (cultured for 6 days) were treated without or with P110 (1 μM) followed by treatment with or without MPP+(1 μM). Two hrs following MPP+ treatment, the cells were stained with MITOSOX™ red (to measure mitochondrial superoxide production) and anti-TH antibody (a marker of dopaminergic neurons). Fifteen hrs after MPP+ treatment, cells were stained with anti-TH antibody and anti-Tom20 antibody (a marker of mitochondria).

[5] = test system: isolated mouse liver mitochondria with Drp1 recombinant protein; test: Superoxide production of isolated mouse liver mitochondria after addition of recombinant Drp1; format: biochemical; conditions: isolated mouse liver mitochondria 50 μg, Drp1 50 ng, P110 1 μM, p<0.05, n=3, FIG. 6C
Procedure: Mitochondrial membrane potential was also determined using TMRM (tetramethylrhodamine methylester). Fifty μg of mitochondria were incubated with recombinant Drp1 (50 ng) followed by incubation with TMRM (0.5 μM) in the presence or absence of P110 (1 μM) or NAC (2.5 mM). Fluoresence detection was performed using black 96-well plates in a fluorescence microplate reader at 560 nm excitation and 690 nm emission and potential was assessed by quenching of the fluorescent signal. The data are presented as mean±S.E. of percentage relative to control mitochondria from three independent experiments (FIG. 6B, #, p<0.05 vs. control cells; *, p<0.05; **, P<0.01 vs. MPP+- or CCCP-treated cells). Isolated mouse liver mitochondria (50 μg) were incubated with Drp1 recombinant protein (50 ng) in the presence or absence of P110 (1 μM). A kinetic change of mitochondrial superoxide production was determined by using MITOSOX™ (red mitochondrial superoxide indicator). […] Mitochondrial membrane potential of isolated mouse liver mitochondria was determined by TMRM, as described above, in the indicated groups. […] Protein levels of cytochrome c in the mitochondria were determined by western blot analysis with anti-cytochrome c antibodies in the indicated groups (insert, FIG. 6D). Total ROS production was determined by staining SH-SY5Y cells with CM2HDCFA (1 μM […] at 37° C.) in the indicated groups. […]

RRRQRRKKRGYGGDLLPRGS (RRRQRRKKRGYGGDLLPRGS-NH2) [P110, TAT47-57 carrier, GG linker, Drp1 region 110 (GTPase domain) peptide DLLPRGS; C-terminus C(O)-NH2]
total ROS produced by the mitochondrial stressors (SH-SY5Y cells [1]): greatly reduced
number of apoptotic cells (annexin V) (SH-SY5Y cells [2]): greatly reduced
mitochondrial membrane potential (MMP) (SH-SY5Y cells [3]): significantly recovered
effect on GTPase activity of OPA1 (OPA1): no effects
neurite loss of dopaminergic neurons (TH) [4]: reduced neurite loss
Drp1-induced ROS (superoxide) elevation in the mitochondria [5]: abolished
